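Assay format: 96-well plates, 48-hour exposure. GI50 marks 50% less growth.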 Activity calls are given as the source filed them. No stated cut-off is given here; in the data, active = GI50 up to about 1.1 µM and inactive = higher.
Assays:
Assay in all cases: growth of human tumour cells (NCI), 48 h
UACC-257 = tested on: UACC-257
MDA-N = tested on: MDA-N
HL-60 = tested on: HL-60
HOP-92 = tested on: HOP-92
SK-MEL-28 = tested on: SK-MEL-28
COLO 205 = tested on: COLO 205
A498 = tested on: A498
SK-MEL-2 = tested on: SK-MEL-2
OVCAR-4 = tested on: OVCAR-4
NCI-H460 = tested on: NCI-H460
HCT-116 = tested on: HCT-116
EKVX = tested on: EKVX
HT-29 = tested on: HT-29
SK-OV-3 = tested on: SK-OV-3
MCF7 = tested on: MCF7
SW-620 = tested on: SW-620
MDA-MB-231 = tested on: MDA-MB-231
MOLT-4 = tested on: MOLT-4
Malme-3M = tested on: Malme-3M
RXF 393 = tested on: RXF 393

## Cc1cn(C(CO)OC(CO)CN(O)C2C3CC4CC(C3)CC2C4)c(=O)[nH]c1=O (stereo unspecified)
UACC-257
  GI50: > 100 µM (inactive)
MDA-N
  GI50: > 100 µM (inactive)
HL-60
  GI50: > 100 µM (inactive)
HOP-92
  GI50: > 100 µM (inactive)
SK-MEL-28
  GI50: > 100 µM (inactive)
COLO 205
  GI50: > 100 µM (inactive)
A498
  GI50: > 100 µM (inactive)
SK-MEL-2
  GI50: > 100 µM (inactive)
OVCAR-4
  GI50: > 100 µM (inactive)
NCI-H460
  GI50: > 100 µM (inactive)
HCT-116
  GI50: > 100 µM (inactive)
EKVX
  GI50: > 100 µM (inactive)
HT-29
  GI50: > 100 µM (inactive)
SK-OV-3
  GI50: > 100 µM (inactive)
MCF7
  GI50: > 100 µM (inactive)
SW-620
  GI50: > 100 µM (inactive)
MDA-MB-231
  GI50: > 100 µM (inactive)
MOLT-4
  GI50: > 100 µM (inactive)

## [O-][S+]1c2ccccc2SCSc2ccccc21
MDA-N
  GI50: > 100 µM (inactive)
HOP-92
  GI50: 14.8 µM (inactive)
COLO 205
  GI50: > 100 µM (inactive)
A498
  GI50: > 100 µM (inactive)
SK-MEL-2
  GI50: > 100 µM (inactive)
OVCAR-4
  GI50: > 100 µM (inactive)
NCI-H460
  GI50: > 100 µM (inactive)
Malme-3M
  GI50: > 100 µM (inactive)
HCT-116
  GI50: > 100 µM (inactive)
HT-29
  GI50: > 100 µM (inactive)
RXF 393
  GI50: > 100 µM (inactive)
SK-OV-3
  GI50: > 100 µM (inactive)
MCF7
  GI50: > 100 µM (inactive)
MDA-MB-231
  GI50: > 100 µM (inactive)
MOLT-4
  GI50: 66.5 µM (inactive)

## Cc1ccc(NC(=O)/C(CC2Nc3c(ccc4c3C(=O)c3ccccc3C4=O)NC2O)=N/NC(C)(C)C)cc1 (stereo unspecified)
UACC-257
  GI50: 16.1 µM (inactive)
MDA-N
  GI50: 14.1 µM (inactive)
HL-60
  GI50: 3.97 µM (inactive)
HOP-92
  GI50: 16.8 µM (inactive)
SK-MEL-28
  GI50: 12.1 µM (inactive)
COLO 205
  GI50: 21.5 µM (inactive)
SK-MEL-2
  GI50: 18.9 µM (inactive)
OVCAR-4
  GI50: 17.7 µM (inactive)
NCI-H460
  GI50: 9.57 µM (inactive)
HCT-116
  GI50: 12.5 µM (inactive)
EKVX
  GI50: 10 µM (inactive)
HT-29
  GI50: 16.4 µM (inactive)
RXF 393
  GI50: 11.1 µM (inactive)
SK-OV-3
  GI50: 12.8 µM (inactive)
MCF7
  GI50: 23.7 µM (inactive)
SW-620
  GI50: 9.68 µM (inactive)
MDA-MB-231
  GI50: 3.42 µM (inactive)
MOLT-4
  GI50: 2.37 µM (inactive)

## CCCCCCCCCCCCCCCC1(OC)C[N+](C)(C)CCO1 (stereo unspecified)
UACC-257
  GI50: 2.08 µM (inactive)
MDA-N
  GI50: 2.05 µM (inactive)
HL-60
  GI50: 0.0883 µM (active)
SK-MEL-28
  GI50: 2.37 µM (inactive)
COLO 205
  GI50: 1.31 µM (inactive)
A498
  GI50: 19.1 µM (inactive)
SK-MEL-2
  GI50: 2.38 µM (inactive)
OVCAR-4
  GI50: 1.02 µM (active)
NCI-H460
  GI50: 2.09 µM (inactive)
Malme-3M
  GI50: 2.18 µM (inactive)
HCT-116
  GI50: 1.63 µM (inactive)
EKVX
  GI50: 2.31 µM (inactive)
HT-29
  GI50: 1.22 µM (inactive)
RXF 393
  GI50: 0.778 µM (active)
SK-OV-3
  GI50: 4.89 µM (inactive)
MCF7
  GI50: 0.221 µM (active)
SW-620
  GI50: 3.21 µM (inactive)
MDA-MB-231
  GI50: 1.75 µM (inactive)
MOLT-4
  GI50: 1.12 µM (inactive)

## Cc1ccc(C(=O)CCC2C(=O)CC(C)(C)CC2=O)cc1
UACC-257
  GI50: > 100 µM (inactive)
MDA-N
  GI50: > 100 µM (inactive)
HOP-92
  GI50: 44.9 µM (inactive)
SK-MEL-28
  GI50: > 100 µM (inactive)
COLO 205
  GI50: > 100 µM (inactive)
SK-MEL-2
  GI50: > 100 µM (inactive)
OVCAR-4
  GI50: > 100 µM (inactive)
NCI-H460
  GI50: > 100 µM (inactive)
HCT-116
  GI50: > 100 µM (inactive)
EKVX
  GI50: > 100 µM (inactive)
HT-29
  GI50: > 100 µM (inactive)
RXF 393
  GI50: > 100 µM (inactive)
SK-OV-3
  GI50: > 100 µM (inactive)
MCF7
  GI50: 53 µM (inactive)
SW-620
  GI50: > 100 µM (inactive)
MDA-MB-231
  GI50: > 100 µM (inactive)
MOLT-4
  GI50: > 100 µM (inactive)

## O=C(CCc1ccc(O)c(O)c1)NCCc1cc(OCc2ccccc2)cc(OCc2ccccc2)c1
UACC-257
  GI50: 28.1 µM (inactive)
MDA-N
  GI50: 11 µM (inactive)
HL-60
  GI50: 2.51 µM (inactive)
HOP-92
  GI50: 8.87 µM (inactive)
SK-MEL-28
  GI50: 10.8 µM (inactive)
COLO 205
  GI50: 2.81 µM (inactive)
A498
  GI50: 15.7 µM (inactive)
SK-MEL-2
  GI50: 17.9 µM (inactive)
NCI-H460
  GI50: 5.55 µM (inactive)
HCT-116
  GI50: 11.8 µM (inactive)
EKVX
  GI50: 13.1 µM (inactive)
HT-29
  GI50: 10.1 µM (inactive)
RXF 393
  GI50: 10.1 µM (inactive)
SK-OV-3
  GI50: 14 µM (inactive)
MCF7
  GI50: 12 µM (inactive)
SW-620
  GI50: 7.1 µM (inactive)
MDA-MB-231
  GI50: 16.6 µM (inactive)
MOLT-4
  GI50: 2.52 µM (inactive)

## Sc1nnc(CNc2ccc(-c3nnc(S)n3-c3ccc(Cl)cc3)cc2)n1-c1ccc(Cl)cc1
UACC-257
  GI50: 41.2 µM (inactive)
MDA-N
  GI50: 26.1 µM (inactive)
HOP-92
  GI50: 23.9 µM (inactive)
SK-MEL-28
  GI50: 25.8 µM (inactive)
COLO 205
  GI50: 22.4 µM (inactive)
A498
  GI50: 55.2 µM (inactive)
SK-MEL-2
  GI50: 22.4 µM (inactive)
OVCAR-4
  GI50: 29.5 µM (inactive)
NCI-H460
  GI50: 31.4 µM (inactive)
Malme-3M
  GI50: 6.58 µM (inactive)
HCT-116
  GI50: 15.2 µM (inactive)
EKVX
  GI50: 45.3 µM (inactive)
HT-29
  GI50: 25.3 µM (inactive)
RXF 393
  GI50: 45.4 µM (inactive)
SK-OV-3
  GI50: 34.4 µM (inactive)
MCF7
  GI50: 40.3 µM (inactive)
SW-620
  GI50: 35.3 µM (inactive)
MDA-MB-231
  GI50: 20.2 µM (inactive)
MOLT-4
  GI50: 26.2 µM (inactive)

## S=C(N/N=C\c1ccccn1)N(Cc1ccccn1)Cc1ccccn1
UACC-257
  GI50: 4.82 µM (inactive)
MDA-N
  GI50: 7.55 µM (inactive)
HOP-92
  GI50: 1.32 µM (inactive)
SK-MEL-28
  GI50: 1.22 µM (inactive)
SK-MEL-2
  GI50: 11.6 µM (inactive)
OVCAR-4
  GI50: 0.91 µM (active)
NCI-H460
  GI50: 1.11 µM (active)
Malme-3M
  GI50: 1.37 µM (inactive)
HCT-116
  GI50: 0.557 µM (active)
EKVX
  GI50: 0.721 µM (active)
HT-29
  GI50: 0.0822 µM (active)
RXF 393
  GI50: 10.4 µM (inactive)
SK-OV-3
  GI50: 2.04 µM (inactive)
MCF7
  GI50: 0.111 µM (active)
SW-620
  GI50: 0.333 µM (active)
MDA-MB-231
  GI50: 0.419 µM (active)
MOLT-4
  GI50: 0.0582 µM (active)

Reference: ChEMBL document CHEMBL1201862, “PubChem BioAssay data set” (2004)
